Experimental findings from patent US11225505B2, “Antimicrobial polymyxin derivative compounds” (MONASH UNIVERSITY, priority 2015, dated 2022) are described below.

Common to all, as to assay type: cell-based
For assay [1], the system named is Acinetobacter baumannii FADDI-AB030. The assay is described as follows: microbe, parasite or virus in culture. As to conditions: for MIC: Acinetobacter baumannii. The procedure:
MICs of the lipopeptides (trifluoroacetic acid salt, TFA) were determined by broth microdilution in cation-adjusted Mueller-Hinton broth (CAMHB) (Oxoid Australia, Thebarton, SA, Australia) according to the Clinical and Laboratory Standards Institute protocol (Clinical and Laboratory Standards Institute, Performance standards for antimicrobial susceptibility testing; twentyforth informational supplement M100-S24. Wayne, Pa., 2014). Polymyxin B sulphate was employed as the control. […] The following isolates were examined: Pseudomonas aeruginosa ATCC 27853, Pseudomonas aeruginosa FADDI-PA022*, Pseudomonas aeruginosa FADDI-PA01*, Pseudomonas aeruginosa FADDI-PA038*, Acinetobacter baumannii FADDI-AB034*, Acinetobacter baumannii ATCC 17978, Acinetobacter baumannii FADDI-AB030*, Klebsiella pneumoniae FADDI-KP032, Klebsiella pneumoniae FADDI-KP022*, Klebsiella pneumoniae Kp BM1*, Enterobacter cloacae FADDI-EC006, Enterobacter cloacae FADDI-EC001, and Enterobacter cloacae FADDI-EC003 (* Multi drug-resistant clinical isolates, § New Delhi Metallo-beta-lactamase-1 (NDM-1) producing). The results are illustrated in Tables 4 and 5. […]

The subject of assay [2] is Klebsiella pneumoniae FADDI-KP022. The conditions noted are these: FADDI-KP022. The procedure:
(§1) MICs of the lipopeptides (trifluoroacetic acid salt, TFA) were determined by broth microdilution in cation-adjusted Mueller-Hinton broth (CAMHB) (Oxoid Australia, Thebarton, SA, Australia) according to the Clinical and Laboratory Standards Institute protocol (Clinical and Laboratory Standards Institute, Performance standards for antimicrobial susceptibility testing; twentyforth informational supplement M100-S24. Wayne, Pa., 2014). Polymyxin B sulphate was employed as the control. Antimicrobial activity of Compounds 1-104 against polymyxin-susceptible Gram-negative bacteria was examined. The following isolates were examined: Pseudomonas aeruginosa ATCC 27853, Pseudomonas aeruginosa FADDI-PA022*, Pseudomonas aeruginosa FADDI-PA01*, Pseudomonas aeruginosa FADDI-PA038*, Acinetobacter baumannii FADDI-AB034*, Acinetobacter baumannii ATCC 17978, Acinetobacter baumannii FADDI-AB030*, Klebsiella pneumoniae FADDI-KP032, Klebsiella pneumoniae FADDI-KP022*, Klebsiella pneumoniae Kp BM1*, Enterobacter cloacae FADDI-EC006, Enterobacter cloacae FADDI-EC001, and Enterobacter cloacae FADDI-EC003 (* Multi drug-resistant clinical isolates, § New Delhi Metallo-beta-lactamase-1 (NDM-1) producing). The results are illustrated in Tables 4 and 5.

Assay [3] has as its system Klebsiella pneumoniae Kp BM1. As to conditions: Kp BM1. The procedure: as §1
The subject of assay [4] is Pseudomonas aeruginosa FADDI-PA022. As to conditions: FADDI-PA022. How it is done: as §1
In assay [5] the test system is Enterobacter cloacae FADDI-EC001. The conditions noted are these: FADDI-EC001. The procedure:
as §1

The subject of assay [6] is Pseudomonas aeruginosa ATCC 27853. The conditions noted are these: ATCC 27853. The procedure:
as §1

Assay [7] concerns Klebsiella pneumoniae FADDI-KP032. As to conditions: FADDI-KP032. How it is done: as §1
Assay [8] concerns Acinetobacter baumannii ATCC 17978. As to conditions: ATCC 17978. How it is done:
as §1

The test system of assay [9] is Acinetobacter baumannii FADDI-AB034. The conditions noted are these: FADDI-AB034. The procedure: as §1
In assay [10] the test system is Enterobacter cloacae FADDI-EC006. The conditions noted are these: FADDI-EC006. How it is done:
as §1

Assay [11] deals with Pseudomonas aeruginosa FADDI-PA038. As to conditions: FADDI-PA038. The procedure: as §1
The subject of assay [12] is Pseudomonas aeruginosa FADDI-PA01. The conditions noted are these: FADDI-. The procedure: as §1
Assay [13] relates to Enterobacter cloacae FADDI-EC003. As to conditions: FADDI-EC003. How it is done:
as §1

Where [14] appears, read: FADDIAB030, clinically used antibiotics, clinical isolate A. baumannii FADDI-AB030, read-out: minimum inhibitory concentration.

≈ marks a conversion by molar mass, not a printed value. Like-named read-outs stand apart in the source and are kept apart here. Where a SMILES comes first, the peptide text is derived from it. Bridges are numbered along the chain shown (N, C = ends). [ ]: non-standard residue; d: D form. The star is where a group is joined. Nicotinoyl(6-CF3) = O=C(c1ccc(C(F)(F)F)nc1)*; X21 = O=C(c1cnc(Cl)cc1Cl)*; Dab = NCC[C@H](N)C(=O)O; Abu = CC[C@H](N)C(=O)O; Dap = NC[C@H](N)C(=O)O

Take `NCC[C@H](O)C(=O)N[C@@H]1C[C@H](N)[C@@H](O[C@H]2O[C@H](CN)[C@@H](O)[C@H](O)[C@H]2O)[C@H](O)[C@H]1O[C@H]1O[C@H](CO)[C@@H](O)[C@H](N)[C@H]1O` [Amikacin, reference compound]: the MIC in assay [1] (setting [14]) is more than 32 µg/mL.

With `CC1(C)S[C@@H]2[C@H](NC(=O)[C@H](N)c3ccccc3)C(=O)N2[C@H]1C(=O)O` [Ampicillin, reference compound], the MIC in assay [1] (setting [14]) is more than 16 µg/mL.

Take `C[C@H]1[C@H](NC(=O)/C(=N\OC(C)(C)C(=O)O)c2csc(N)n2)C(=O)N1S(=O)(=O)O` [Aztreonam, reference compound]: the MIC in assay [1] (setting [14]) was more than 16 µg/mL.

For the compound `CO/N=C(\C(=O)N[C@@H]1C(=O)N2C(C(=O)[O-])=C(C[N+]3(C)CCCC3)CS[C@H]12)c1csc(N)n1` [Cefepime, reference compound], in [1] (setting [14]), the MIC was more than 16 µg/mL.

On to `CC(C)(O/N=C(\C(=O)N[C@@H]1C(=O)N2C(C(=O)[O-])=C(C[n+]3ccccc3)CS[C@H]12)c1csc(N)n1)C(=O)O` [Ceftazidime, reference compound], for which the MIC in [1] (setting [14]) was more than 16 µg/mL.

For the compound `CO/N=C(\C(=O)N[C@@H]1C(=O)N2C(C(=O)O)=C(CSc3nc(=O)c(=O)[nH]n3C)CS[C@H]12)c1csc(N)n1` [Ceftriaxone, reference compound], the MIC in [1] (setting [14]) is more than 32 µg/mL.

Regarding `CC[C@@H]1NC(=O)[C@@H](CC(C)C)NC(=O)[C@H](CCN)NC(=O)[C@@H](NC(=O)[C@H](CN)NC(=O)[C@@H](NC(=O)[C@H](CCN)NC(=O)c2cnc(Cl)cc2Cl)[C@@H](C)O)CCNC(=O)[C@H]([C@@H](C)O)NC(=O)[C@H](CCN)NC(=O)[C@H](CCN)NC1=O` [Compound 2] (X21-[Dab]T[Dap][Dab][Dab][dL][Abu][Dab][Dab]T; lactam 4-C), the Minimum inhibitory concentration in assay [2] is less than 0.125 µg/mL; in [3], 0.5 µg/mL (≈ 0.431 µM); in assay [4] it was 0.5 µg/mL (≈ 0.431 µM); in assay [5], 0.25 µg/mL (≈ 0.215 µM); in assay [6], 0.5 µg/mL (≈ 0.431 µM); in assay [7], 0.5 µg/mL (≈ 0.431 µM). In addition, the Minimum inhibitory concentration is 8 µg/mL (≈ 6.89 µM) in assay [8]; 8 µg/mL (≈ 6.89 µM) in [9]; 2 µg/mL (≈ 1.72 µM) in assay [10]; 1 µg/mL (≈ 0.861 µM) in assay [11]; 0.5 µg/mL (≈ 0.431 µM) in assay [12]; 2 µg/mL (≈ 1.72 µM) in assay [13]. In assay [1] (FADDI-AB030), this compound yielded a Minimum inhibitory concentration of 2 µg/mL (≈ 1.72 µM).

In the case of `CC[C@@H]1NC(=O)[C@@H](CC(C)C)NC(=O)[C@H](CCN)NC(=O)[C@@H](NC(=O)[C@H](CN)NC(=O)[C@@H](NC(=O)[C@H](CCN)NC(=O)c2ccc(C(F)(F)F)nc2)[C@@H](C)O)CCNC(=O)[C@H]([C@@H](C)O)NC(=O)[C@H](CCN)NC(=O)[C@H](CCN)NC1=O` [Compound 3] ({Nicotinoyl(6-CF3)}-[Dab]T[Dap][Dab][Dab][dL][Abu][Dab][Dab]T; lactam 4-C), the Minimum inhibitory concentration in [2] is less than 0.125 µg/mL; in assay [3], 1 µg/mL (≈ 0.862 µM); in [4] it was 1 µg/mL (≈ 0.862 µM); in assay [5], 0.5 µg/mL (≈ 0.431 µM); in [6], 0.5 µg/mL (≈ 0.431 µM); in assay [7] it was 0.25 µg/mL (≈ 0.215 µM). Also, the Minimum inhibitory concentration amounted to 1 µg/mL (≈ 0.862 µM) in assay [8]; 1 µg/mL (≈ 0.862 µM) in assay [9]; 1 µg/mL (≈ 0.862 µM) in assay [10]; 1 µg/mL (≈ 0.862 µM) in [11]; 0.5 µg/mL (≈ 0.431 µM) in assay [12]; 0.25 µg/mL (≈ 0.215 µM) in assay [13]. In addition, the Minimum inhibitory concentration in assay [1] (FADDI-AB030) came out at 1 µg/mL (≈ 0.862 µM).

Turning to `C[C@@H](O)[C@H]1C(=O)N2C(C(=O)O)=C(S[C@@H]3CN[C@H](CNS(N)(=O)=O)C3)[C@H](C)[C@H]12` [Doripenem, reference compound], the MIC in [1] (setting [14]) is more than 8 µg/mL.

For the compound `C[C@H]1c2cccc(O)c2C(=O)C2=C(O)[C@]3(O)C(=O)C(C(N)=O)=C(O)[C@@H](N(C)C)[C@@H]3[C@@H](O)[C@@H]21` [Doxycycline, reference compound], the MIC in [1] (setting [14]) is more than 8 µg/mL.

As for `C[C@@H](O)[C@H]1C(=O)N2C(C(=O)O)=C(S[C@@H]3CN[C@H](C(=O)Nc4cccc(C(=O)O)c4)C3)[C@H](C)[C@H]12` [Ertapenem, reference compound], the MIC in assay [1] (setting [14]) is more than 8 µg/mL.

On to `C[C@H]1NCc2cc(-c3ccc4c(=O)c(C(=O)O)cn(C5CC5)c4c3OC(F)F)ccc21` [Garenoxacin, reference compound], for which, in [1] (setting [14]), the MIC is more than 4 µg/mL.

In the case of `COc1c(N2CCNC(C)C2)c(F)cc2c(=O)c(C(=O)O)cn(C3CC3)c12` (centres unmarked) [Gatifloxacin, reference compound], in assay [1] (setting [14]), the MIC is more than 4 µg/mL.

For the compound `C[C@@H](O)[C@H]1C(=O)N2C(C(=O)O)=C(SCCN=CN)C[C@H]12` [Imipenem, reference compound], the MIC in assay [1] (setting [14]) is more than 8 µg/mL.

Regarding `C[C@H]1COc2c(N3CCN(C)CC3)c(F)cc3c(=O)c(C(=O)O)cn1c23` [Levofloxacin, reference compound], the MIC in [1] (setting [14]) is more than 4 µg/mL.

In the case of `C[C@@H](O)[C@H]1C(=O)N2C(C(=O)O)=C(S[C@@H]3CN[C@H](C(=O)N(C)C)C3)[C@H](C)[C@H]12` [Meropenem, reference compound], in assay [1] (setting [14]), the MIC was more than 8 µg/mL.

For `CN(C)c1ccc(O)c2c1C[C@H]1C[C@H]3[C@H](N(C)C)C(O)=C(C(N)=O)C(=O)[C@@]3(O)C(O)=C1C2=O` [Minocycline, reference compound], the MIC in assay [1] (setting [14]) was more than 8 µg/mL.

As for `COc1c(N2C[C@@H]3CCCN[C@@H]3C2)c(F)cc2c(=O)c(C(=O)O)cn(C3CC3)c12` [Moxifloxacin, reference compound], the MIC in assay [1] (setting [14]) was more than 4 µg/mL.

With `CCN1CCN(C(=O)N[C@@H](C(=O)N[C@@H]2C(=O)N3[C@@H]2SC(C)(C)[C@@H]3C(=O)O)c2ccccc2)C(=O)C1=O` [Piperacillin, reference compound], in [1] (setting [14]), the MIC is more than 64 µg/mL.

As to `CN(C)[C@@H]1C(O)=C(C(N)=O)C(=O)[C@@]2(O)C(O)=C3C(=O)c4c(O)cccc4[C@@](C)(O)[C@H]3C[C@@H]12` [Tetracycline, reference compound], the MIC in [1] (setting [14]) is more than 8 µg/mL.

As to `CN(C)c1cc(NC(=O)CNC(C)(C)C)c(O)c2c1C[C@H]1C[C@H]3[C@H](N(C)C)C(O)=C(C(N)=O)C(=O)[C@@]3(O)C(O)=C1C2=O` [Tigecycline, reference compound], in assay [1] (FADDIAB030, read-out: minimum inhibitory concentration), the MIC stood at 4 µg/mL (≈ 6.83 µM).

In the case of `NC[C@H]1O[C@H](O[C@H]2[C@H](O)[C@@H](O[C@H]3O[C@H](CO)[C@@H](O)[C@H](N)[C@H]3O)[C@H](N)C[C@@H]2N)[C@H](N)C[C@@H]1O` [Tobramycin, reference compound], in assay [1] (setting [14]), the MIC was more than 16 µg/mL.

Consider Gentamicin [reference compound], for which the Minimum inhibitory concentration in assay [1] (clinically used antibiotics, clinical isolate A. baumannii FADDI-AB030) was more than 8 µg/mL.
